Inhibition and IC50 data for 6 compounds are collected here from PMC12199309, “Isolation, structural elucidation, and integrated biological and computational evaluation of antidiabetic labdane diterpenes from Curcuma zedoaria rhizomes” (RSC Advances, 2025).

Read-outs that look alike come from different tables or passages of the source.

Assay [1] has as its target T1, α-Glucosidase (EC 3.2.1.20) (Saccharomyces cerevisiae, UniProt P53341).
T1 construct: purchased Sigma Chemical Co. (St. Louis, MO, USA)
In words: biochemical. The settings on record: for inhibition at 1 µM / inhibition at 2.5 µM / inhibition at 5 µM / inhibition at 10 µM / inhibition at 25 µM / inhibition at 50 µM / inhibition at 100 µM: read-out: Inhibition rate (%). How it is done:
Five isolated compounds were examined to assess their inhibitory effect on α-glucosidase at concentrations ranging from 1 to 100 μM. […]
Optical values were conducted on a Shimadzu UV-1800 spectrophotometer (Shimadzu Pte., Ltd, Singapore). IR spectra were measured with a Shimadzu IR-408 infrared spectrometer (Shimadzu Pte., Ltd, Singapore). NMR spectra were acquired on a Bruker Avance III 500 spectrometer Bruker BioSpin AG, Bangkok, (Thailand), with chemical shifts (δ) referenced to deuterated solvents. HR-ESI-MS data were obtained on Bruker micrOTOFQII mass spectrometer (Bruker Singapore Pte., Ltd, Singapore). Column chromatography utilized silica gel 60 (0.06–0.2 mm; Scharlau, Barcelona, Spain) and LiChroprep RP-18 (40–63 μm; Merck KGaA, Darmstadt, Germany). Thin-layer chromatography (TLC) employed Kieselgel 60 F254 or RP-18 F254 plates from Merck KGaA (Darmstadt, Germany). α-Glucosidase (EC 3.2.1.20), derived from Saccharomyces cerevisiae (750 UN), along with p-nitrophenyl-α-D-glucopyranoside, was procured from Sigma Chemical Co. (St. Louis, MO, USA). […] All other chemicals and solvents were of the highest purity or analytical grade.
The inhibitory activity of α-glucosidase was assessed using a modified method based on Kurihara et al.[37] The reaction was initiated by adding 50 μL of 1.5 mM p-nitrophenyl-α-D-glucopyranoside and 50 μL of 0.1 U mL^−1 α-glucosidase in 0.01 M phosphate buffer (pH 7.0) to 625 μL of sample solution. The reaction was conducted at 37 °C for 30 minutes and terminated with 0.1 M Na2CO3. Enzymatic activity was quantified by measuring absorbance at a wavelength of 401 nm. One unit of α-glucosidase activity was defined as the amount of enzyme that liberates […] p-nitrophenol per minute. The IC50 value represented the inhibitor concentration that suppressed 50% of enzyme activity.

For assay [2], the target named is T1, α-Glucosidase (EC 3.2.1.20). In words: biochemical. As to conditions: read-out: Inhibition rate (%).
[3] abbreviates: α-glucosidase inhibition, 37 °C, 30 minutes, pH 7.0, read-out: IC50.

T1 sequence (P53341 whole entry): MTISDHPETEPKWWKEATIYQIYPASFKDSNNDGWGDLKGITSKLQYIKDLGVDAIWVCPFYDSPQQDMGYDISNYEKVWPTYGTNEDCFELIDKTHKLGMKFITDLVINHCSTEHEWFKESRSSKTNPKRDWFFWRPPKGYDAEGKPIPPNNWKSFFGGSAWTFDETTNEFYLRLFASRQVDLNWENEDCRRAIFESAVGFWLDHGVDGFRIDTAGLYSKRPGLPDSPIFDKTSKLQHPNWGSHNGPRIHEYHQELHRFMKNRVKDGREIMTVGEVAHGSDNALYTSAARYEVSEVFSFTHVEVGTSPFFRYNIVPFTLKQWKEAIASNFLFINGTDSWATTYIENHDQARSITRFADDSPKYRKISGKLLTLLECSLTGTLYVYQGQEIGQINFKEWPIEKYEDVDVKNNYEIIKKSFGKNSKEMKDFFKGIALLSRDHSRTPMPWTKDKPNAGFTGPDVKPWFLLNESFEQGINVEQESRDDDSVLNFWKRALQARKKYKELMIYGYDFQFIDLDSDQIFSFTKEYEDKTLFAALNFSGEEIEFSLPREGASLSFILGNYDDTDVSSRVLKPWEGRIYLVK

Take `C=C1CC[C@H]2C(C)(C)CCC[C@]2(C)[C@H]1CCC1=CC(O)OC1=O` (some centres unmarked) [CZ4, coronarin C]: in assay [1], the inhibition (as a rule, the relative decrease from the control value, in per cent) at 1 µM came to 13.7 ± 5.4%; the inhibition at 2.5 µM is 34 ± 0.9%; the inhibition at 5 µM stood at 81 ± 1.7%; the inhibition at 10 µM was 95.4 ± 1.5%. Also, the IC50 (in general, the midpoint of a concentration-inhibition curve) in assay [1] (setting [3]) was found to be 3 µM.
On to `C=C1CC[C@H]2C(C)(C)CCC[C@]2(C)[C@H]1/C=C/C1=C(O)COC1=O` [CZ3, zerumin], for which, in assay [1], the inhibition at 1 µM came out at 6.9 ± 4%, the inhibition at 2.5 µM is 20.8 ± 3.6%, the inhibition at 5 µM came out at 35.2 ± 1.9% and the inhibition at 10 µM turned out to be 73.4 ± 2.3%. Besides, in assay [1] (setting [3]), the IC50 was found to be 6.2 µM.
`C[C@H]1O[C@H](O[C@H]2[C@H](O)[C@@H](O)[C@@H](O[C@H]3[C@H](O)[C@@H](O)C(O)O[C@@H]3CO)O[C@@H]2CO)[C@H](O)[C@@H](O)[C@@H]1N[C@H]1C=C(CO)[C@@H](O)[C@H](O)[C@H]1O` (some centres unmarked) [PC, acarbose, reference compound]: in assay [1], the inhibition at 25 µM came out at 8.6 ± 1.1%, the inhibition at 50 µM was 19.7 ± 1.3% and the inhibition at 100 µM amounted to 32.1 ± 1.7%. In assay [2], the inhibition at 250 µM stood at 66 ± 1.2%.
Take `C=C1CCC2C(C)(C)CCCC2(C)C1CC=C(CO)C(=O)O` (centres unmarked) [CZ2, (E)-14-hydroxy-15-norlabda-8(17),12-dien-16-oic acid]: in assay [1], the IC50 turned out to be 25.5 µM, the inhibition at 10 µM worked out at 24.6 ± 4.1%, the inhibition at 25 µM was 46.3 ± 3.1% and the inhibition at 50 µM is 72.4 ± 2%. Also, the inhibition at 100 µM in assay [1] was 99.1 ± 2%.
For the compound `C=C1CCC2C(C)(C)CCCC2(C)C1CC=C(COC(C)=O)C(=O)O` (centres unmarked) [CZ1, zedolabdin A], in assay [1], the IC50 was determined as 14.1 µM, the inhibition at 10 µM was found to be 29.5 ± 1.8%, the inhibition at 25 µM was 81.4 ± 0.5% and the inhibition at 50 µM was determined as 96.2 ± 0.4%. The inhibition at 100 µM in assay [1] came to 98.8 ± 0.4%.
Take `C=C1CCC2C(C)(C)CCCC2(C)C1C=CC(=O)O` (centres unmarked) [CZ5, (E)-14,15,16-trinorlabda-8(17),11-dien-13-oic acid]: in assay [1], the half-inhibitory concentration (IC50) turned out to be 37.6 µM, the inhibition at 10 µM worked out at 3.5 ± 3.6%, the inhibition at 25 µM was found to be 16.6 ± 3.8% and the inhibition at 50 µM worked out at 75.8 ± 4.4%. In addition, the inhibition at 100 µM in assay [1] amounted to 99.8 ± 0.2%.
